Entries after “also recorded” stand apart in the source; their conditions may differ.
System: BRAF V600E mutation in urinary cfDNA
Experiment: Monitoring of BRAF V600E mutation in urinary cfDNA (droplet digital PCR) of treated LCH/ECD patients
Format: in vivo, human
Settings: for detection of mutant BRAF V600E in urine cfDNA, treatment naive versus treated patient samples: FIG. 3, treated versus treatment-naive samples; for BRAF V600E mutation burden in urinary cfDNA over time on therapy: histiocytosis (LCH/ECD) patients, serial urine samples during treatment, FIG. 4-6
Description: Urinary cell-free (cf)DNA analysis was performed in all patients and plasma cfDNA analysis in 19/26 patients. Serial urinary samples in 10 BRAF V600E mutant samples were also obtained to track disease burden with therapy. Urine and plasma cfDNA were quantified by a droplet digital PCR (ddPCR; QX-100, BioRad).
A two-step assay design was developed for a 28-30 basepair footprint in the target mutant gene sequence. FIG. 1 summarizes the assay design, which includes a first preamplification step to increase the number of copies of a target mutant gene sequence relative to wild-type gene sequences that are present in the sample. The pre-amplification is conducted in the presence of a wild-type (non-mutant) suppressing “WT blocker” oligonucleotide that is complementary to the wild-type sequence (but not the mutant sequence) to decrease amplification of wild-type DNA. The pre-amplification is performed with primers that include adapters (or “tags”) at the 5′ end to facilitate amplification in the second step.
The second step is additional amplification with primers complementary to the tags on the ends of the primers used in the first step and a TaqMan (reporter) probe oligonucleotide complementary to the mutant sequence for quantitative, digital droplet PCR.

Row | Structure (SMILES) | detection of mutant BRAF V600E in urine cfDNA, treatment naive versus treated patient samples | BRAF V600E mutation burden in urinary cfDNA over time on therapy | BRAF V600E mutation in urinary cfDNA after the end of treatment (one subject, end of treatment, FIG. 6)
1 | CCCS(=O)(=O)Nc1ccc(F)c(C(=O)c2c[nH]c3ncc(-c4ccc(Cl)cc4)cc23)c1F [vemurafenib, N-{3-[5-(4-Chlorophenyl)-1H-pyrrolo[2,3-b]pyridin-3-carbonyl]-2,4-difluorophenyl}propane-1-sulfonamide] | decreased detection of mutant BRAF V600E | a decrease in the mutation in urinary cfDNA; also recorded: decreased BRAF mutant allele burden with therapy | an increase, or “rebound,” in the amount of the mutation in urinary cfDNA
2 | CC(C)(C)c1nc(-c2cccc(NS(=O)(=O)c3c(F)cccc3F)c2F)c(-c2ccnc(N)n2)s1 [dabrafenib, N-{3-[5-(2-aminopyrimidin-4-yl)-2-tert-butyl-1,3-thiazol-4-yl]-2-fluorophenyl}-2,6-difluorobenzenesulfonamide] | decreased detection of mutant BRAF V600E | a decrease in the mutation in cfDNA during the course of treatment | –

— patent publication US20150344957A1, “MONITORING TREATMENT OF HISTIOCYTOSIS WITH VEMURAFENIB AND DABRAFENIB” (TROVAGENE, INC., priority 2014, published 2015)
